For two compounds, IC50 and EC50 results are on record in patent US9675614B2, “PRMT5 inhibitors and uses thereof” (Epizyme, Inc., priority 2012, dated 2017).

For one experiment, the target named is PRMT5/MEP50 (Homo sapiens (Human), UniProt O14744). Briefly: PRMT5 Biochemical Assay (PRMT5/MEP50 enzyme assay on peptide substrate, 3H-SAM Flashplate). The following applies: PRMT5/MEP50 biochemical assay; read-out: Biochemical IC50.
Experiment [1] has as its system symmetric di-methyl arginine in Z-138 cells. Nature of the experiment: Z-138 Methylation Assay (In Cell Western for symmetric di-methyl arginine and DNA content). The following applies: Homo sapiens, read-out: ICW EC50. The class given is cell-based. An excerpt: [formula] Where top and bottom are the normally allowed to float, but may be fixed at 100 or 0 respectively in a 3-parameter fit. The Hill Coefficient normally allowed to float but may also be fixed at 1 in a 3-parameter fit. Y is the % inhibition and X is the compound concentration.
RPMI/Glutamax medium, penicillin-streptomycin, heat inactivated fetal bovine serum, and D-PBS were purchased from Life Technologies, Grand Island, N.Y., USA. Odyssey blocking buffer, 800CW goat anti-rabbit IgG (H+L) antibody, and Licor Odyssey infrared scanner were purchased from Licor Biosciences, Lincoln, Nebr., USA. Symmetric di-methyl arginine antibody was purchased from EMD Millipore, Billerica, Mass., USA. 16% Paraformaldehyde was purchased from Electron Microscopy Sciences, Hatfield, Pa., USA.
Cell Treatment, in Cell Western (ICW) for Detection of Symmetric Di-Methyl Arginine and DNA Content.
Z-138 cells were seeded in assay medium at a concentration of 50,000 cells per mL to a 384-well cell culture plate with 50 μL per well. Compound (100 nL) from 384 well source plates was added directly to 384 well cell plate. Plates were incubated at 37° C., 5% CO2 for 96 hours. […] Plates were incubated at room temperature for 30 minutes then incubated at 37° C., 5% CO2 for 5 hours. After the incubation, 40 μL per well of 8% paraformaldehyde in PBS (16% paraformaldahyde was diluted to 8% in PBS) was added to each plate and incubated for 30 minutes. […] Next 30 μL per well of Odyssey blocking buffer were added to each plate and incubated 1 hour at room temperature. […]
First, the ratio for each well was determined by:
Each plate included fourteen control wells of DMSO only treatment (minimum inhibition) as well as fourteen control wells for maximum inhibition treated with 3 μM of a reference compound (Background wells). The average of the ratio values for each control type was calculated and used to determine the percent inhibition for each test well in the plate. […] Percent inhibition was determined and IC50 curves were generated using triplicate wells per concentration of compound.

Another experiment concerns Z-138 cell line. Nature of the experiment: Z-138 Proliferation Assay (Cell Titer Glo, 5 days). The class given is cell-based. As to conditions: Z-138 cells. An excerpt:
RPMI/Glutamax medium, penicillin-streptomycin, heat inactivated fetal bovine serum were purchased from Life Technologies, Grand Island, N.Y., USA. V-bottom polypropylene 384-well plates were purchased from Greiner Bio-One, Monroe, N.C., USA. Cell culture 384-well white opaque plates were purchased from Perkin Elmer, Waltham, Mass., USA. Cell-Titer Glo® was purchased from Promega Corporation, Madison, Wis., USA. SpectraMax M5 plate reader was purchased from Molecular Devices LLC, Sunnyvale, Calif., USA.
A compound source plate was prepared by performing triplicate nine-point 3-fold serial dilutions in DMSO, beginning at 10 mM (final top concentration of compound in the assay was 20 μM and the DMSO was 0.2%). A 100 nL aliquot from the compound stock plate was added to its respective well in the cell plate. […] After addition of compounds, assay plates were incubated for 5 days at 37° C., 5% CO2, relative humidity >90%. […] Luminescence was read in the SpectraMax M5 microplate reader. The concentration of compound inhibiting cell viability by 50% was determined using a 4-parametric fit of the normalized dose response curves.

Chain of PRMT5/MEP50 (O14744 other isoform, or with tags, fused parts or gaps): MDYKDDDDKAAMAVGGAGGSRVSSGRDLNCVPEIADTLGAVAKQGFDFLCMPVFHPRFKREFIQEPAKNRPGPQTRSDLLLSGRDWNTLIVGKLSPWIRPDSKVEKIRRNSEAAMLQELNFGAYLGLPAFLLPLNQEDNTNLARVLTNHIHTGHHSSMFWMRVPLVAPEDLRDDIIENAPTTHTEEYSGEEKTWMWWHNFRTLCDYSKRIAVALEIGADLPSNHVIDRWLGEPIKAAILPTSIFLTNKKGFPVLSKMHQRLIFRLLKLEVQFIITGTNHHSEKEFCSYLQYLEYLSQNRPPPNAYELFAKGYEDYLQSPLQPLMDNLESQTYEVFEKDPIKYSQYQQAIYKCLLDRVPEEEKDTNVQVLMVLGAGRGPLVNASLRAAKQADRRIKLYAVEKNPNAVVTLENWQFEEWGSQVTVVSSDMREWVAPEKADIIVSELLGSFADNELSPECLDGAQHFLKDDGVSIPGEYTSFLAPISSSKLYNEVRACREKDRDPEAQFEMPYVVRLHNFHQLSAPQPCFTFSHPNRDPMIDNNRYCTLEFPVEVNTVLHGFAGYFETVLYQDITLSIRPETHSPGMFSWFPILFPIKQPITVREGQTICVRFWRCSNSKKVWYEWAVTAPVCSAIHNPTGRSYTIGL
Chain of PRMT5/MEP50 (Q9BQA1 other isoform, or with tags, fused parts or gaps partner): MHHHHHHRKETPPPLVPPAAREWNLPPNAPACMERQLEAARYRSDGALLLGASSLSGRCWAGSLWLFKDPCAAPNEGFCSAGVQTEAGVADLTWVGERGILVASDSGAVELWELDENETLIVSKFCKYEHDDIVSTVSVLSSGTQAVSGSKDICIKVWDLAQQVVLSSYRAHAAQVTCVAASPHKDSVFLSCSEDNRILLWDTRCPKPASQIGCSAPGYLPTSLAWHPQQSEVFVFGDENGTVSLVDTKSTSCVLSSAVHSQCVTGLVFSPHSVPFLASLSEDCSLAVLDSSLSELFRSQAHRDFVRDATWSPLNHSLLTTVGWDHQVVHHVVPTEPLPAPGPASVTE

Take `CN1CCC(Oc2cccc(C(=O)NCC(O)CN3CCc4ccccc4C3)c2)C1` (stereo not drawn) [Compound 120]: at PRMT5/MEP50, the half-inhibitory concentration (IC50) was less than 100 nM. The figures for the EC50 (in experiment [1]; in the experiment with Z-138 cell line) were 101 to 1000 nM and 1000 to 10000 nM, respectively.
`CN1CCC(Oc2cc(C(=O)NC[C@H](O)CN3CCc4ccccc4C3)ncn2)CC1` [Compound 206]: the IC50 at PRMT5/MEP50 is less than 100 nM. For the same compound, the concentration giving a half-maximal response (EC50) in experiment [1] was in the range of 101 to 1000 nM; in the experiment on Z-138 cell line (Homo sapiens, Z-138, 120 h) it was 1000 to 10000 nM.
